Test results taken from patent US8815857B2 (Boehringer Ingelheim International GmbH, priority 2011, dated 2014).
Converted amounts (≈) assume the structure as drawn.

How the values were obtained:
[1] = target: T1, Recombinant human soluble guanylate cyclase (sGC), alpha 1 / beta 1 subunits, heme-free (Homo sapiens, UniProt Q02108+Q02153); assay: Molecular assay: cGMP formation by heme-free recombinant sGC (CisBio cGMP detection kit); assay type: biochemical; settings: 300 pM heme-free sGC, 37° C., 60 min, cGMP readout; read-out: EC50 nM, Activity of Compounds in Molecular Assay
T1 construct: histidine tag (C); made in house; host or cells: Sf9 insect cells (baculovirus coinfection)
T1 sequence (Q02108 1-690 partner): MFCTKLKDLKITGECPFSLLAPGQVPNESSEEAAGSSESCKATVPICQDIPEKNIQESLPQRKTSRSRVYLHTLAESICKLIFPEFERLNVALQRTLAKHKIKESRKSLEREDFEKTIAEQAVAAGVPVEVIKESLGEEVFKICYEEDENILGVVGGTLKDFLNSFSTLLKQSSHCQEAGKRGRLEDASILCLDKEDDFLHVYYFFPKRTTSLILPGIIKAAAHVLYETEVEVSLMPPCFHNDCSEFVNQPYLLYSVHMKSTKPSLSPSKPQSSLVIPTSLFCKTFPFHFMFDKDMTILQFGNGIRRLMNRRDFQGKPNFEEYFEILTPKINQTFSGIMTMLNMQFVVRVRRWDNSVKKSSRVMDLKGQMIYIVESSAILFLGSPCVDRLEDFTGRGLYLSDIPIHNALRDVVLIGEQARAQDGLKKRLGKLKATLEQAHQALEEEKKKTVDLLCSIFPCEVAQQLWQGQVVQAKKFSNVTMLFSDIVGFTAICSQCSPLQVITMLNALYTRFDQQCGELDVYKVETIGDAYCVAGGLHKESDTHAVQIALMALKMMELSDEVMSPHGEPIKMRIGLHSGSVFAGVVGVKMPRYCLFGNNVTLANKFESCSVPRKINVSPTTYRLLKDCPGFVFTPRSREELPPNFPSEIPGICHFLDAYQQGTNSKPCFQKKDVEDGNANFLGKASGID
T1 sequence (Q02153 1-619): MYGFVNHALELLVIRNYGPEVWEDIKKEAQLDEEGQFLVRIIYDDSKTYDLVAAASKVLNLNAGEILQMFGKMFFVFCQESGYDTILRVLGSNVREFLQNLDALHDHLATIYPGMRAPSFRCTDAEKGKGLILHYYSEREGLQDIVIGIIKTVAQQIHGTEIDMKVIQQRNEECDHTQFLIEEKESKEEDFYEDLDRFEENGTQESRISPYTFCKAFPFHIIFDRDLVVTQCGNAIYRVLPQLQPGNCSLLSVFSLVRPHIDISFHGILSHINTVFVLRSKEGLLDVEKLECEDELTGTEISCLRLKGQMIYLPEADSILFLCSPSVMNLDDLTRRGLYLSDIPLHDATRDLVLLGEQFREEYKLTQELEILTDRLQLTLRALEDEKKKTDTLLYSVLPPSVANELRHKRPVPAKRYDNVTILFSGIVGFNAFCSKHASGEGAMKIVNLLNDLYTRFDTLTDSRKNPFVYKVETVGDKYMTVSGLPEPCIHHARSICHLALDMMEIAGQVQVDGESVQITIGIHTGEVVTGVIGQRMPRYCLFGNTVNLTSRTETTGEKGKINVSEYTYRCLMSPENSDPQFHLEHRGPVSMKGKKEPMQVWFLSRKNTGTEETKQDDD
Outline: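 Heme-free His-tagged sGC (Sf9-expressed, Tween 20-treated lysate) at 300 pM incubated with compounds (1% DMSO) for 60 min at 37° C in MOPS pH 6.8 with 50 nM GTP, IBMX, TCEP. cGMP quantified by HTRF against calibration curve; EC50 from combined undiluted/diluted values.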

[2] = Assessment of solubility: HT solubility in pION buffer, UV spectrophotometry; settings: 16-19 h incubation, 1.0% DMSO; for solubility: pION system solution buffer, kinetic from dmso stock
Description: Solubility is measured by the following method.
DMSO stock samples at 10 mM concentration are prepared. […] The samples are pierced and 100 ul of thawed samples are transferred into the PCR plate for analysis. Each sample is run in duplicate at each pH (pH 4.5 and 7.4). Up to 95 samples can be run in replicate at 2 pH's+1 DMSO (blank).
Preparation of pH 4.5 and 7.4 Buffers:
• pH 4.5 buffer:—To 12.5 of system solution (pION)qs to 500 mL of distilled water (pH 2.85-2.90); adjust the pH to pH 4.5 with 0.5 N NaOH. • pH 7.4 buffer: To 12.5 of system solution (pION)qs to 500 mL of distilled water (pH 2.85-2.90); adjust the pH to pH 7.4 with 0.5N NaOH. […] Procedure: Preparation of UV Blank Plate:
75 ul of buffer (pH 7.4 or pH 4.5) is added to UV plate followed by addition of 70 ul of N-propanol. The solution is mixed and the blank spectrum is read using spectrophotometer.
Preparation of Reference UV Plate:
10 ul of each stock sample (including DMSO control) is added to 190 ul of N-propanol to prepare the reference stock plate. Reference stock samples are mixed and 5 ul of each stock sample is added to UV blank plate after it is read spectrophotometrically. The reference stock sample is mixed with blank solution in UV plate and the reference spectrum is read using UV spectrophotometer.
Preparation of Sample for Incubation:
Solubility at pH 7.4:6 ul of each stock sample (including DMSO control) is added to the storage plate containing 600 ul of pH 7.4 buffer, mixed and incubated for 16-19 h. The plate is sealed well during the incubation process. The DMSO content in the sample is 1.0%. The concentration in deep well plates is 100 uM
6 ul of each stock sample (including DMSO control) is added to the deep well plate containing 600 ul of pH 4.5 buffer, mixed and incubated for 16-19 h. The plate is sealed well during the incubation process. The DMSO content in the sample is 1.0%. The concentration in deep well plates is 100 uM
Preparation of Sample UV Plate:
At the end of the incubation period, 100 uL of sample from the storage plate is vacuum filtered using a filter plate. This step wets the filters and the filtrate is discarded. Another 200 ul of the sample from the deep well plate is vacuum filtered using the same filter block but a clean filter plate. 75 ul of the filtrate from the filter plate is transferred to a UV sample plate. 75 ul of N-propanol is added to this UV plate. The solution is mixed and the spectrum is read using the UV spectrophotometer.
The spectra collected for blank, reference and sample from 250-498 nm is analyzed using pION software. If the sample precipitates out, the solubility is reported as XX μg/ml.

[3] = pH 4.5, pH 4.5, aqueous buffer, Solubility (pH 4.5), pH 4.5 buffer
[4] = pH 7.4, pH 7.4, aqueous buffer, Solubility (pH 7.4), pH 7.4 buffer

SMILES | EC50 [1] [nM] | solubility [2, 3] [µg/mL] | solubility [2, 4] [µg/mL] | Solubility (pH 4.5) ([2]; pH 4.5 buffer) [μg/mL]
Cc1ccc(OCc2ccc(C(=O)N3CCCCC3)cc2C)c(-c2csc(N3CCC(C(=O)O)C(C(F)(F)F)C3)n2)c1 (stereo not drawn) [Compound 142] | 160 | 2 (≈ 3.32 µM) | > 60 | 
Cc1cc(CN2CCS(=O)(=O)CC2)ccc1COc1ccc(C#N)cc1-c1csc(N2CC3CCC(C2)C3C(=O)O)n1 (stereo not drawn) [Compound 146] | 2000 | 0.75 (≈ 1.24 µM) | > 60 | 
Cc1cc(CN2CCS(=O)(=O)CC2)ccc1COc1ccc(C#N)cc1-c1csc(N2C3CCC2CC(C(=O)O)C3)n1 (stereo not drawn) [Compound 147] | 1200 | 1 (≈ 1.65 µM) | > 60 | 
Cc1cc(CN2CCS(=O)(=O)CC2)ccc1COc1c(-c2csc(N3CCC(C(=O)O)CC3)n2)cccc1C(F)(F)F [Compound 151] | 9.9 | 0.15 (≈ 0.24 µM) | > 62 | 
Cc1cc(CN2CCS(=O)(=O)CC2)ccc1COc1ccccc1-c1csc(N2CCC(C(=O)O)CC2C(F)(F)F)n1 (stereo not drawn) [Compound 152] | 170 | 0.3 (≈ 0.481 µM) | > 62 | 
Cc1ccc(OCc2ccc(CN3CCS(=O)(=O)CC3)cc2C)c(-c2csc(N3CCC(C(=O)O)C(C(F)(F)F)C3)n2)c1 (stereo not drawn) [Compound 154] | 530 | 0.8 (≈ 1.25 µM) | > 63 | 
Cc1cc(CN2CCS(=O)(=O)CC2)ccc1COc1ccc(C#N)cc1-c1csc(N2CCC(C(=O)O)C(C(F)(F)F)C2)n1 (stereo not drawn) [Compound 156] | 3100 | 0.45 (≈ 0.694 µM) | > 64 | 
COCCNCc1ccc(COc2ccc(C#N)cc2-c2csc(N3CCC(C(=O)O)CC3)n2)c(C)c1 [Compound 172] | 5600 | 41 (≈ 78.7 µM) | > 63 | 

The next lines start with the values.

EC50 [1] [nM] | solubility [2, 3] [µg/mL] | solubility [2, 4] [µg/mL] | Solubility (pH 4.5) ([2]; pH 4.5 buffer) [μg/mL] | SMILES
38 | 0.2 (≈ 0.331 µM) | 36 (≈ 59.6 µM) |  | Cc1cc(CN2CCS(=O)(=O)CC2)ccc1COc1ccc(Cl)cc1-c1csc(N2CCC(C(=O)O)CC2C)n1 (stereo not drawn) [Compound 143]
650 | 0.25 (≈ 0.413 µM) | > 60 |  | Cc1cc(C(=O)N2CCCCC2)ccc1COc1ccc(F)cc1-c1csc(N2CCC(C(=O)O)C(C(F)(F)F)C2)n1 (stereo not drawn) [Compound 145]
4100 | 0.3 (≈ 0.49 µM) | > 61 |  | Cc1cc(C(=O)N2CCCCC2)ccc1COc1ccc(C#N)cc1-c1csc(N2CCC(C(=O)O)C(C(F)(F)F)C2)n1 (stereo not drawn) [Compound 148]
380 |  | > 62 | 0.1 | Cc1cc(C(=O)N2CCCCC2)ccc1COc1ccc(Cl)cc1-c1csc(N2CCC(C(=O)O)C(C(F)(F)F)C2)n1 (stereo not drawn) [Compound 149]
1200 | 1.4 (≈ 2.24 µM) | > 62 |  | Cc1cc(CN2CCS(=O)(=O)CC2)ccc1COc1ccccc1-c1csc(N2CCC(C(=O)O)C(C(F)(F)F)C2)n1 (stereo not drawn) [Compound 150]
43 | 0.2 (≈ 0.314 µM) | > 63 |  | Cc1ccc(OCc2ccc(CN3CCS(=O)(=O)CC3)cc2C)c(-c2csc(N3CCC(C(=O)O)CC3C(F)(F)F)n2)c1 (stereo not drawn) [Compound 153]
940 | 0.15 (≈ 0.228 µM) | > 65 |  | Cc1cc(CN2CCS(=O)(=O)CC2)ccc1COc1ccc(Cl)cc1-c1csc(N2CCC(C(=O)O)C(C(F)(F)F)C2)n1 (stereo not drawn) [Compound 157]
520 | > 55 | > 55 |  | Cc1cc(CN2CCOCC2)ccc1COc1ccccc1-c1csc(N2CCC(C(=O)O)CC2)n1 [Compound 166]
52 | 41 (≈ 77 µM) | > 64 |  | Cc1ccc(OCc2ccc(CN3CCOCC3)cc2C#N)c(-c2csc(N3CCC(C(=O)O)CC3)n2)c1 [Compound 167]
730 | 36 (≈ 67.6 µM) | > 57 |  | Cc1cc(CN2CCOCC2)ccc1COc1ccc(C#N)cc1-c1csc(N2CCC(C(=O)O)CC2)n1 [Compound 168]
2400 | 34 (≈ 63.6 µM) | 36 (≈ 67.3 µM) |  | COCCN(C)Cc1ccc(COc2ccc(C#N)cc2-c2csc(N3CCC(C(=O)O)CC3)n2)c(C)c1 [Compound 171]
